The test system of assay [1] is histone H3 Lys27 trimethylation in Pfeiffer cells expressing mutant EZH2 (A677G). Kind of assay: Tri-Methyl Histone H3 (Lys 27) sandwich ELISA in Pfeiffer cells. The format is cell-based. Particulars: Homo sapiens, 96 hours incubation, read-out: IC50 (nM), Inhibition of EZH2-mediated Histone H3 Trimethylation. From the text:
The Pfeiffer cell line was established from a […] from a patient having metastatic diffuse large B-cell lymphoma (DLBCL). This cell line expresses a mutant form of the EZH2 enzyme (A677G) that results in enhanced EZH2 activity leading to increased methylation of histone H3 Lys27. Increased trimethylation of histone H3 Lys27 is believed to be implicated in tumorgenesis and poor clinical prognosis in lymphomas (McCabe et al., (2012) Nature 492:108-112).
Inhibition of PRC2-mediated histone H3 methylation by compounds of Formula (I) was measured by ELISA using a Tri-Methyl Histone H3 (Lys 27) Sandwich ELISA Kit (Cell Signaling Tech #7866C) in accordance with the manufacturer's instructions. Briefly, Pfeiffer cells were cultured in RPMI medium supplemented with 10% fetal bovine serum and 1% penicillin and 1% streptoncin in 96 well culture plates at 37° C. to a density of 8000 cells/90 μl/well and the cells were harvested. A series of 3-fold serial dilutions of each test compound of Formula (I) were prepared in RPMI medium and added to the cells at final concentrations ranging from 1 μM to 0.15 nM. The plates were incubated at 37° C. for 96 hours.
After incubation, the cells were pelleted by centrifugation in a pre-cooled 4° C. rotor at 1,100 rpm for 10 min and the supernatant was removed by aspiration. The cell pellet was resuspended in 55 μl of Lysis Buffer (0.4M HCl) and incubated on ice with periodic shaking for 30 minutes. The lysed cells were subjected to centrifugation at 4,200 rpm for 10 min at 4° C. and the supernatant containing acid-soluble proteins was collected and the remainder discarded. The acid-soluble proteins were brought to a neutral pH by the addition of 20 μl of Neutralization Buffer (1 M Sodium phosphate, dibasic (pH 12.5), 2.5 mM DTT and 1 mM PMSF) and the neutralized lysates were analyzed by ELISA.
A 65 μl aliquot of each cell lysate was added to a well of a microwell strip, the microwells were sealed using tape and incubated either at 37° C. for two hours or at 4° C. overnight. After incubation, the tape was removed at the microwells were washed four times using 200 μl of 1× Wash Buffer. To each washed microwell, a 100 μl aliquot of an anti-trimethyl histone H3 Lys27 Detection Antibody solution was added and the microwells were incubated at 37° C. for one hour. The Detection Antibody solution was removed by aspiration and the wells were washed four times each using 200 μl of 1× Wash Buffer.
A 100 μl aliquot of an HRP-linked secondary antibody was added to each well, the wells were sealed with tape and incubated at 37° C. for 30 min. The HRP-linked secondary antibody solution was removed by aspiration and the wells were washed four times using 200 μl of 1× Wash Buffer. A 100 μl aliquot of a TMB substrate was added to each well, the wells were sealed with tape and incubated at 37° C. for 10 min or 25° C. for 30 min. The reaction was stopped by the addition of 100 μl aliquot of a STOP solution and the plate was shaken briefly. The degree of histone H3 trimethylation was determined using a spectrophotometric readout by measuring the absorbance at 450 nm and then calculating the amount of trimethylated histone H3. A=≤100 nM; B=>100 nM-≤500 nM; C=>500 nM and N.D.=not determined.
(In general: In an ELISA, binding on a coated surface is turned into a signal by an enzyme label.)

Assay [2] has as its system Karpas 422 cells expressing mutant EZH2 (Y641N). The assay can be described thus: Karpas 422 cell viability, CTG (Cell Titre Glo) assay. The format is cell-based, human. The conditions noted are these: Day 4, 7 or 11 measured, time point of the table not stated, read-out: IC50 (nM), Inhibiting Proliferation of Cells Expressing an Activating Mutant Form of EZH2. The protocol:
Karpas 422 cell line is a human B cell non-Hodgkin's lymphoma cell line established from a patient having DLBCL. This EZH2 heterozygotic cell line expresses a mutant form of EZH2 enzyme (Y641N) that increases histone H3 methylation and this mutation has been implicated in the tumorgenesis of lymphomas, such as DLBCL.
Karpas 422 cells (PHE cat no., 06101702) were cultured in RPMI medium supplemented with 20% fetal bovine serum and 1% penicillin/l % streptomycin and plated at a density of 1000 cells/90 μl/well in 96 well white assay plates. A dose response curve for compounds of the present invention was determined by adding a 10 μl aliquot of stock solutions of varying concentrations of compounds to the same medium in each well, over a concentration range of 10 μM using 3-fold dilutions to a final concentration of 1.5 nM. The plates were incubated at 37° C. for predetermined time periods, Day 4, Day 7, or Day 11, and the viability of the cells was measured using a CTG assay kit (Cell Titre Glo; Promega cat. no G7573) on Day 4 and Day 7 in accordance with the manufacturer's instructions.
For the viability assay for the Day 11 plates, the plates were subjected to centrifugation at 1100 rpm for five minutes on Day 7 and the supernatant was removed by aspiration. The cells were resuspended in 90 μl aliquot of the appropriate growth medium lacking the compound followed by addition of 10 μl of a 10× stock of the same compound at the same concentration. The viability of the Day 11 cells was measured using the CTG assay kit described above in accordance with the manufacturer's instructions. The IC50 values for each compound at each predetermined time point were calculated using Graph pad PRISM software and the results are shown in Table 15. A=≤250 nM; B=<250 nM-≤500 nM; and C=>500 nM.

Assay [3] concerns the target purified human, His-tagged PRC2 complex (Homo sapiens (Human), UniProt O75530). Kind of assay: Hot Spot HMT assay: inhibition of PRC2 enzymatic activity (transfer of tritiated methyl from SAM to core histone H3). The format is biochemical. The conditions noted are these: 10 nM PRC2 complex, 0.05 mg/ml core histone H3, 1 uM 3H-SAM, 1 hr at 30° C.; read-out: IC50, Inhibition of PRC2-mediated Enzymatic Activity. From the text: The assay uses purified human, His-tagged PRC2 complex, including N-terminal His-tagged EZH2 enzyme. N-terminal Flag-tagged embryonic ectoderm development protein (EED), N-terminal His-tagged suppressor of zeste 12 (SUZ12), N-terminal His-tagged AEBP2, and N-terminal His-tagged RbAp48. In this assay, the transfer of the tritiated methyl group from radiolabeled S-adenosyl methionine (SAM) to purified core histone protein by EZH2 is quantitated after filtration to determine the activity of the core PRC2 complex in the presence and absence of compound.
The initial starting concentration for the serial dilutions of each compound was 1.0 μM. […] SAH (S-(5-adenosyl)-L-homocysteine) was used as a positive control for assay validation.
An aliquot of each serial dilution of test compound was added to deep 384 well plate using Acoustic Technology instrument (Echo 550, LabCyte) containing reaction buffer (50 mM Tris-HCl (pH 8)), 0.01% Brij35, 1 mM EDTA, 1 mM DTT, 1 mM PMSF and 1% DMSO), 10 nM purified PRC2 complex and 0.05 mg/ml core histone H3 in a 5 μl volume. The reaction was mixed gently and then pre-incubated for 20 min at 30° C. The enzymatic reaction was initiated by adding 1 uM S-Adenosyl-L-[methyl-^3H]methionine and incubated for 1 hr at 30° C. After 1 hr, the reaction product was detected using a filter binding method and the amount of tritiated H3 core histone was quantitated using a scintillation counter. […] Key: A=<100 nM; B=>100 nM-<500 nM; and C=>500 nM.

Where two headings read alike, the source gives them in different places.

Sequence of purified human, His-tagged PRC2 complex (Q15910 whole entry): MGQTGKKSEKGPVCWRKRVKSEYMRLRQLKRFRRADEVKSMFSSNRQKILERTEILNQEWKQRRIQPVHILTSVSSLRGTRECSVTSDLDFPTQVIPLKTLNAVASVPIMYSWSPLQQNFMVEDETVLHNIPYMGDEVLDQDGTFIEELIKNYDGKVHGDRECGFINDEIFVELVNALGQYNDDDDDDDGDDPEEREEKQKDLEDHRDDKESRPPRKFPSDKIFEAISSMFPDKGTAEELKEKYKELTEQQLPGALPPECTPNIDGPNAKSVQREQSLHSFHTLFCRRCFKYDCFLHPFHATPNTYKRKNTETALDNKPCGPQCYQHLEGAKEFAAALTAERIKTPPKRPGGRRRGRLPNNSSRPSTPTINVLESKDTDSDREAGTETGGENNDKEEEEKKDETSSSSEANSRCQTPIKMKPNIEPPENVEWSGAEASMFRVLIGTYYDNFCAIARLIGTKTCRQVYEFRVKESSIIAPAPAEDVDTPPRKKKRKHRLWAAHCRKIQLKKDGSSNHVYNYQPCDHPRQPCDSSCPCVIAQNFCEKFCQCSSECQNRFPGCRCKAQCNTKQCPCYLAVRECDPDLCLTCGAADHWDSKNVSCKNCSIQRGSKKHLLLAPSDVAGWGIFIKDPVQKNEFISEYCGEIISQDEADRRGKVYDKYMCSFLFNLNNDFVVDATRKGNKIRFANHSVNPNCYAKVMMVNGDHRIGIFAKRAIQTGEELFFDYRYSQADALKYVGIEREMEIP
Sequence of purified human, His-tagged PRC2 complex (O75530 whole entry): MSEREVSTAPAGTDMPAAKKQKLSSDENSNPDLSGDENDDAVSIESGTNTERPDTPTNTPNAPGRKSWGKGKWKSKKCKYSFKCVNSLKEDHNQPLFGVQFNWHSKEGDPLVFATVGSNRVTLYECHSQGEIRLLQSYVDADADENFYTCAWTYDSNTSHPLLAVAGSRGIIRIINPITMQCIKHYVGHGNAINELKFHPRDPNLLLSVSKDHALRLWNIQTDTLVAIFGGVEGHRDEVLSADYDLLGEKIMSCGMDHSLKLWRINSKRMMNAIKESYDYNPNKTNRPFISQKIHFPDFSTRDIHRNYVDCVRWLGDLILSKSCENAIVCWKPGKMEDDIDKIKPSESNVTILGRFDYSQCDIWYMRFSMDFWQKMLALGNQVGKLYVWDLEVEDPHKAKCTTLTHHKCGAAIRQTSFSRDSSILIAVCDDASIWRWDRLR
Sequence of purified human, His-tagged PRC2 complex (Q15022 whole entry partner): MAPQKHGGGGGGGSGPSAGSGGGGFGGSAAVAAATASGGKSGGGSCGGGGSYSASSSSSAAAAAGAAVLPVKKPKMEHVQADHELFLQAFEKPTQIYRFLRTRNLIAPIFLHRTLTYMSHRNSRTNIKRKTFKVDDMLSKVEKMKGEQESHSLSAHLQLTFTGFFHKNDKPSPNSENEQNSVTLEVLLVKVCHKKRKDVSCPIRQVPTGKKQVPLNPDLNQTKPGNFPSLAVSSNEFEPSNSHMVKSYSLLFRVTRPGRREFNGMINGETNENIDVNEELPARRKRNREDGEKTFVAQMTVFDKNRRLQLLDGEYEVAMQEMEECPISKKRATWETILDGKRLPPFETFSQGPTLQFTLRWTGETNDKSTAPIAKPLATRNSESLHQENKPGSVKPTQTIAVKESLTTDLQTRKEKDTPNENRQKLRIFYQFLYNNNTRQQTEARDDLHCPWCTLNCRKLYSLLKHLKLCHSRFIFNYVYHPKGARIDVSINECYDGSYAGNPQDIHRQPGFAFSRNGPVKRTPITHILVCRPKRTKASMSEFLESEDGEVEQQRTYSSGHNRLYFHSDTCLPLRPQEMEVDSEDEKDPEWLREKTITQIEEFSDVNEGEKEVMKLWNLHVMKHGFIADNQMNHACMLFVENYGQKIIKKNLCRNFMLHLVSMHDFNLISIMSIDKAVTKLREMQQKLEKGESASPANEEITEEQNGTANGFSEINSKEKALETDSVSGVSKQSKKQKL
Sequence of purified human, His-tagged PRC2 complex (Q6ZN18 whole entry partner): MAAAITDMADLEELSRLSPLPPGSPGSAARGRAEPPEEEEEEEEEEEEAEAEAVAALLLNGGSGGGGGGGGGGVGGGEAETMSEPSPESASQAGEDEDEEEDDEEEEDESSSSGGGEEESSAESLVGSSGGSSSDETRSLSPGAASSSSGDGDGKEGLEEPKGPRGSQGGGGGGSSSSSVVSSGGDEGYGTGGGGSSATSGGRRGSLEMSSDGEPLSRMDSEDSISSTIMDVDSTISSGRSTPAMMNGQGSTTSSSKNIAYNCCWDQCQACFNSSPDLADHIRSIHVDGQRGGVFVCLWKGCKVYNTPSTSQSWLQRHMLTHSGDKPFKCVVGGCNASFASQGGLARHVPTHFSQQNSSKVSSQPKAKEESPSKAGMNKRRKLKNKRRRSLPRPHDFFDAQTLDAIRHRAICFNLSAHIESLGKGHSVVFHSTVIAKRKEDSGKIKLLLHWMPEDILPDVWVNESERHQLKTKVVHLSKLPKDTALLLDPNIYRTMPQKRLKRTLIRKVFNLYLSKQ
Sequence of purified human, His-tagged PRC2 complex (Q09028 whole entry partner): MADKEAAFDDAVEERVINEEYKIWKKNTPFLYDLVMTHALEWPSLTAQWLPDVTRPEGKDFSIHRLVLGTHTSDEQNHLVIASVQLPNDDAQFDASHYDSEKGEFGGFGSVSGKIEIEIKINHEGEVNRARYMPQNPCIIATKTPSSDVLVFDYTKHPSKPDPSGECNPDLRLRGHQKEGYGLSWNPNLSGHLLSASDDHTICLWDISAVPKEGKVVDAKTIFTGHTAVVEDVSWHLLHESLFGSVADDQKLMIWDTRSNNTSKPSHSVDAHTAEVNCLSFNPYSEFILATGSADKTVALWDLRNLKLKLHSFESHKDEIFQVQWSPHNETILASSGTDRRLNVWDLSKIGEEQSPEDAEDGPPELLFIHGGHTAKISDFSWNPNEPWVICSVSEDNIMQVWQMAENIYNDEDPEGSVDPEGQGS

`Cn1nc(C(=O)O)cc1-c1cnc(NCc2c(F)ccc3c2CCO3)n2cc(C#N)nc12` [Example 157, 5-(2-cyano-5-(((5-fluoro-2,3-dihydrobenzofuran-4-yl)methyl)amino)imidazo[1,2-c]pyrimidin-8-yl)-1-methyl-1H-pyrazole-3-carboxylic acid]: the IC50 was below 100 nM in assay [1] and at most 250 nM in assay [2] (Homo sapiens, 96 h).
For `Cc1nc(CN(C)C)ccc1-c1cnc(NCc2c(F)ccc3c2CCO3)n2cc(C#N)nc12` [Example 152], the IC50 in assay [2] was at most 250 nM.
For the molecule `CN(C)C(=O)c1cc(-c2cnc(NCc3c(F)ccc4c3CCO4)n3cc(C#N)nc23)n(C)n1` [Example 170, 5-(2-cyano-5-(((5-fluoro-2,3-dihydrobenzofuran-4-yl)methyl)amino)imidazo[1,2-c]pyrimidin-8-yl)-N,N,1-trimethyl-1H-pyrazole-3-carboxamide], the IC50 in assay [2] was 250 to 500 nM.
As to `Cc1cc(-c2cnc(NCc3c(F)ccc4c3OCO4)n3cc(C#N)nc23)n(C)n1` [Example 228, 8-(1,3-dimethyl-1H-pyrazol-5-yl)-5-(((5-fluorobenzo[d][1,3]dioxol-4-yl)methyl)amino)imidazo[1,2-c]pyrimidine-2-carbonitrile], the IC50 is 100 to 500 nM in assay [3]; 100 to 500 nM in assay [1]; at most 250 nM in assay [2] (Homo sapiens, 96 h).
For `Cc1cc(-c2cnc(NCc3c(F)ccc4occc34)n3cc(C#N)nc23)n(C)n1` [Example 28], the IC50 was below 100 nM in assay [3] and 250 to 500 nM in assay [2] (Homo sapiens, 96 h).
Consider `N#Cc1cn2c(NCc3c(F)ccc4c3CCO4)ncc(-c3cnc(C4CC4)nc3)c2n1` [Example 70], for which the IC50 in assay [3] is below 100 nM; in assay [1], below 100 nM; in assay [2] (Homo sapiens, 96 h), at most 250 nM.
With `Cc1cc(-c2cnc(NCc3c(F)ccc4c3CCO4)n3cc(C#N)nc23)ccn1` [Example 178, 5-(((5-fluoro-2,3-dihydrobenzofuran-4-yl)methyl)amino)-8-(2-methylpyridin-4-yl)imidazo[1,2-c]pyrimidine-2-carbonitrile], the IC50 is 100 to 500 nM in assay [3]; 100 to 500 nM in assay [1]; at most 250 nM in assay [2] (Homo sapiens, 96 h).
`[2H]C([2H])(Nc1ncc(-c2ccc(CN(C)C)cc2)c2nc(C#N)cn12)c1c(F)ccc2c1CCO2` [Example 165, 8-(4-((dimethylamino)methyl)phenyl)-5-(((5-fluoro-2,3-dihydrobenzofuran-4-yl)methyl-d2)amino)imidazo[1,2-c]pyrimidine-2-carbonitrile]: the IC50 in assay [1] was 100 to 500 nM; in assay [2] (Homo sapiens, 96 h), at most 250 nM.
